Measurements: patent US7026347B2, “Porphyrin-polyamine conjugates for cancer therapy” (CellGate, Inc., priority 2002, dated 2006)

Legend:
Format in all cases: cell-based
[1] = test system: DuPro human prostate tumor cells; assay: MTT assay, human prostate tumor cell growth, DuPro; details: 144 h, MTT six days after drug treatment, read-out: ID50 (μM) values for Human prostate tumor Cell Lines DuPro
Experimental: (§1) A conventional MTT assay was used to evaluate percent cell survival. Exponentially growing monolayer cells were plated in 96-well plates at a density of 500 cells per well and allowed to grow for 24 hours. Serial dilutions of the drugs were added to the wells. Six days after drug treatment, 25 μl of MTT solution (5 mg/ml) was added to each well and incubated for 4 hours at 37° C. Then 100 μl of lysis buffer (20% sodium dodecyl sulfate, 50% DMF, and 0.8% acetic acid, pH 4.7) was added to each well and incubated for an additional 22 hours. A microplate reader (“EMAX”-brand, Molecular Devices, Sunnyvale, Calif.) set at 570 nm was used to determine the optical density of the cultures. Results are expressed as a ratio of the optical density in drug-treated wells to the optical density in wells treated with vehicle only. FIGS. 1–13 also indicate the effects of the compounds on various cell lines.

[2] = test system: PC-3 human prostate tumor cells; assay: MTT assay, human prostate tumor cell growth, PC-3; details: 144 h, PC-3 cells, MTT six days after drug treatment, read-out: ID50 (μM) values for Human prostate tumor Cell Lines PC-3
Experimental: as §1

[3] = test system: Tsu-pr1 human prostate tumor cells; assay: MTT assay, human prostate tumor cell growth, Tsu-pr1; details: 144 h, MTT six days after drug treatment, read-out: ID50 (μM) values for Human prostate tumor Cell Lines Tsu-pr1
Experimental: as §1

[4] = test system: Tsu-pr1-ADR human prostate tumor cells; assay: MTT assay, human prostate tumor cell growth, Tsu-pr1-ADR; details: 144 h, MTT six days after drug treatment, read-out: ID50 (μM) values for Human prostate tumor Cell Lines Tsu-pr1-ADR
Experimental: as §1

[5] = test system: BxPC-3 human pancreatic cancer cells; assay: MTT assay, human pancreatic cancer cell growth, BxPC-3; details: 144 h, BxPC-3 cells, MTT six days after drug treatment, read-out: ID50(μM) values for Human Pancreatic Cancer Cell Lines BxPC-3
Experimental: as §1

[6] = test system: Panc-1 human pancreatic cancer cells; assay: MTT assay, human pancreatic cancer cell growth, Panc-1; details: 144 h, Panc-1 cells, MTT six days after drug treatment, read-out: ID50(μM) values for Human Pancreatic Cancer Cell Lines Panc-1
Experimental: as §1

[7] = test system: Human Brain Tumor Cells U251MG NCI; assay: MTT assay, human brain tumor cell growth, U251MG NCI; details: U-251, 144 h, MTT six days after drug treatment, read-out: ID50(μM) values for Human Brain Tumor Cells U251MG NCI
Experimental: as §1

IC50 [1] | IC50 [2] | IC50 [3] | IC50 [4] | IC50 [5] | IC50 [6] | Compound | IC50 [7]
1.9 µM | 1.7 µM | 1.87 µM | 12.6 µM | 5.92 µM | 12.5 µM | CCCCCCCCCCCCCC1CCN(CCCNC(=O)CCC2=C(C)c3cc4[nH]c(cc5nc(cc6[nH]c(cc2n3)c(CCC(=O)NCCCN2CCCN(C)CCCCN(C)CCCN(C)C(CCCCCCCCCCCCC)CC2)c6C)C(CC)=C5C)c(CC)c4C)CCCN(C)CCCCN(C)CCCN1C (stereo not drawn) [SL-11237] | 2.3 µM
3.6 µM | 2.8 µM | – | – | 6.87 µM | 6.38 µM | CCNCCCCNCC1CC1CNCCCCN(CC)C(=O)CCC1=C(C)c2cc3[nH]c(cc4nc(cc5[nH]c(cc1n2)c(CCC(=O)N(CC)CCCCNCC1CC1CNCCCCNCC)c5C)C(CC)=C4C)c(CC)c3C (stereo not drawn) [SL-11217] | 5.65 µM
